Measured values published in US20090300848A1, “EPOXIDE-BASED TANNAGE SYSTEM” (BLC LEATHER TECHNOLOGY CENTRE LTD, priority 2006, published 2009).
Values after ≈ are worked out from the molar mass of the structure shown.

Assay: solubility in aqueous phase
Type: physicochemical
Details: water, 25° C.
Description: By having an aromatic-like, heterocyclic triazine nucleus, it is believed to impart a network structure into the protein during tanning, giving better thermal stability.

Q: With `O=c1n(CC2CO2)c(=O)n(CC2CO2)c(=O)n1CC1CO1` (stereo not shown) [TGIC, trigycidyl isocyanurate] as the compound, how does the solubility read?
A: 10000 µg/mL (≈ 33.6 mM)
